These results are taken from patent US8945641B2, “Use of gum arabic for improving the growth and survival of bifidobacteria” (Compagnie Gervais Danone, priority 2006, dated 2015).

Molecules are shown by their SMILES.

This assay concerns Bifidobacterium animalis ssp lactis I-2494. In words: Growth and survival of bifidobacteria in a drinking yogurt with yogurt ferments, acacia gum and/or cysteine, storage at 10° C. Conditions: acacia gum 0.8%. It is filed as cell-based. The source says:
A drinking yogurt (2.8% of proteins) is manufactured by reconstitution of milk powder, and supplemented with 0.8% (by weight) of acacia gum, as described in Example 1 above. This type of product is chosen for the trials since it is the one that poses the biggest problems in terms of maintaining the population of bifidobacteria during storage. The reconstituted milk, supplemented with acacia gum, is heat treated as described in Example 1 above, and homogenized (150-200 bar).
After cooling to 38-40° C., Streptococcus thermophilus and Lactobacillus delbrueckii ssp. Bulgaricus are added in an amount of 5×10^6 CFU/ml of Streptococcus thermophilus, 5×10^6 CFU/ml of Lactobacillus bulgaricus. Bifidobacterium animalis ssp lactis I-2494 is added in the form of a ferment for direct inoculation, such as those described in application FR 0606421 supplemented with cysteine or not. The supplemented ferment used corresponds to the addition of 1.92×10^7 CFU/ml of Bifidobacterium animalis and 6.9 mg/l of cysteine.
After inoculation, the fermentation is carried out at 38° C., and monitored using the CINAC® system (YSEBAERT) until the curd settling pH is obtained (4.3<pH<4.4).
The curd settling is obtained by drawing off and cooling between 10-20° C., and then stirring.
The product is then packaged in pots and then placed in a cold tunnel (4° C.).
The populations are then counted at 2 h of storage at 15° C., and then 2, 8 14, 28 and 37 days of storage at 10° C.
The same experiment was repeated with a product containing 2.7% of proteins, containing 0.8% of acacia gum, and inoculated with a ferment supplemented with cysteine, corresponding to the addition of 1.90×10^7 CFU/ml of bifidobacteria animalis and 7 mg/l of cysteine.

`N[C@@H](CS)C(=O)O` [Control Cysteine, cysteine]: the “Number of Bifidus at 2 h of storage” value (2 h of storage at 15° C., drinking yogurt 2.8% proteins, cysteine 6.9 mg/l where present) is 2.1E+8 CFU/g. Besides, the “Number of Bifidus at D +2” value is, setting by setting: (D+2, repeat, product 2.7% proteins, cysteine 7 mg/l where present) 1.05E+08 CFU/g; (D+2 at 10° C., 2.8% proteins, cysteine 6.9 mg/l where present) 1.2E+8 CFU/g. Also, the “Number of Bifidus at D +8” value is, setting by setting: (D+8, repeat, 2.7% proteins, cysteine 7 mg/l where present) 9.00E+07 CFU/g; (D+8 at 10° C., 2.8% proteins, cysteine 6.9 mg/l where present) 1.8E+8 CFU/g. In addition, the “Number of Bifidus at D +14” value runs as follows: (D+14, repeat, 2.7% proteins, cysteine 7 mg/l where present) 7.00E+07 CFU/g; (D+14 at 10° C., 2.8% proteins, cysteine 6.9 mg/l where present) 1.4E+8 CFU/g. Besides, the “Number of Bifidus at D +21” value (D+21, repeat, 2.7% proteins, cysteine 7 mg/l where present) is 4.00E+07 CFU/g. In addition, the “Number of Bifidus at D +28” value is, setting by setting: (D+28, repeat, 2.7% proteins, cysteine 7 mg/l where present) 2.00E+07 CFU/g; (D+28 at 10° C., 2.8% proteins, cysteine 6.9 mg/l where present) 8.8E+7 CFU/g. Moreover, the “Number of Bifidus at D +35” value (D+35, repeat, 2.7% proteins, cysteine 7 mg/l where present) stood at 6.00E+06 CFU/g. Moreover, for the setting “D+37 at 10° C., 2.8% proteins, cysteine 6.9 mg/l where present”, the “Number of Bifidus at D +37” value is on record as 7.8E+7 CFU/g. Moreover, the “Number of Bifidus at D +52” value (D+52, repeat, 2.7% proteins, cysteine 7 mg/l where present) came out at 3.00E+06 CFU/g.
